Values of other authors, collected in patent publication US20220202698A1, “EXTENDED RELEASE PHARMACEUTICAL COMPOSITIONS OF RIOCIGUAT” (Jubilant Pharma Holdings Inc., priority 2020, published 2022).

Tests used:
[1] = BCS classification
[2] = human, in vivo

COC(=O)N(C)c1c(N)nc(-c2nn(Cc3ccccc3F)c3ncccc23)nc1N [Riociguat, methyl 4,6-diamino-2-[1-(2-fluorobenzyl)-1H-pyrazolo[3,4-b]pyridin-3-yl]-5-pyrimidinyl(methyl)carbamate]
Solubility [1]: low solubility | Elimination half-life [2]: about 12 hours
